Laboratory results: patent US20230141603A1, “BENZODIAZEPINE DERIVATIVES AS GABA A GAMMA1 PAM” (Hoffmann-La Roche Inc., priority 2021, published 2023)

Molecular target: T1, h-GABAA α5β2γ1 (Homo sapiens, UniProt P31644+Q8N1C3)
T1 construct: expressed in transfected cells; host or cells: HEK293F cells (ThermoFisher R79007), membranes
T1 sequence (P31644 32-462): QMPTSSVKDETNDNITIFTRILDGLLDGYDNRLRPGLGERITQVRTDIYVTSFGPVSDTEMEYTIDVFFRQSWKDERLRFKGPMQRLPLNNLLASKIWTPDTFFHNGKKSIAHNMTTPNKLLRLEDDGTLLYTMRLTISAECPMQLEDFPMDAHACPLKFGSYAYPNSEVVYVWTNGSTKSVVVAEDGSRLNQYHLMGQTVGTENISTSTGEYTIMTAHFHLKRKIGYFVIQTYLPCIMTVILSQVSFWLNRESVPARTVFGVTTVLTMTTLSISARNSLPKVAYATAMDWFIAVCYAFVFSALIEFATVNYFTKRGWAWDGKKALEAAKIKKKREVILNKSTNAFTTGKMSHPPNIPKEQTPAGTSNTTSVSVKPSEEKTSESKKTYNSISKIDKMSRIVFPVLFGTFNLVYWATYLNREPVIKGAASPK
T1 sequence (P47870 25-512 partner limits assumed): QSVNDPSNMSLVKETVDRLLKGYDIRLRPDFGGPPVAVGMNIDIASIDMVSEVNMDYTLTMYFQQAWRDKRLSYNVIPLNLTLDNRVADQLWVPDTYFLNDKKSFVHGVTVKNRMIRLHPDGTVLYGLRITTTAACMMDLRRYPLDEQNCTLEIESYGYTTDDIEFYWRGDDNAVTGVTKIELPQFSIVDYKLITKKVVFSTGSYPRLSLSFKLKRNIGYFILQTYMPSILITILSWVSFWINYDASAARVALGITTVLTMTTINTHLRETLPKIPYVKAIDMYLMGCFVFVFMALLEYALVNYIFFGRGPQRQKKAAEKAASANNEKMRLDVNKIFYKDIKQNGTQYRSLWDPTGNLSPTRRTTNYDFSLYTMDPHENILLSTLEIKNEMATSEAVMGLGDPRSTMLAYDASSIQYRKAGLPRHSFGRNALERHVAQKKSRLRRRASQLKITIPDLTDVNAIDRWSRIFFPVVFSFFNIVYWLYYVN
T1 sequence (Q8N1C3 36-465): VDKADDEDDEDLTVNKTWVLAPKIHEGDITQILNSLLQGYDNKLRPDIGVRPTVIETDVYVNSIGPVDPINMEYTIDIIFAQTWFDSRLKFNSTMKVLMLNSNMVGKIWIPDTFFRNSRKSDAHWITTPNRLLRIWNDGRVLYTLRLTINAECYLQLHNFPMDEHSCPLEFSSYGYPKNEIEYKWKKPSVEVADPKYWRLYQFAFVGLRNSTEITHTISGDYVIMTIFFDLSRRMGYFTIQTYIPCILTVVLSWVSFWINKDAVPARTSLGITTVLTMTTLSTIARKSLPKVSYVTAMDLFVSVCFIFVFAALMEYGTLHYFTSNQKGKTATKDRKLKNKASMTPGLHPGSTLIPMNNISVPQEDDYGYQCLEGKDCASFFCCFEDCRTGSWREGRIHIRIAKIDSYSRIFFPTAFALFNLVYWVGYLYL
Assay: Radioligand binding assay, [3H]RO7239181 competition, HEK293F membranes
Method in brief: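 Competition for [3H]RO7239181 (1.5 nM) binding to membranes from HEK293F cells transiently expressing human α5β2γ1 receptors. Compounds tested at 0.3–10000 nM; nonspecific binding defined with 10 μM RO7235136. Incubation 1 h at 4 °C in 10 mM KPi/100 mM KCl, pH 7.4; filtration, scintillation counting; Ki as mean of two determinations.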

Row | SMILES | Ki [nM]
1 | Fc1cccc(F)c1C1=NCc2nnc(-c3cccnn3)n2-c2ccc(C(F)(F)F)c(Cl)c21 [Example 38, 7-chloro-6-(2,6-difluorophenyl)-1-pyridazin-3-yl-8-(trifluoromethyl)-4H-[1,2,4]triazolo[4,3-a][1,4]benzodiazepine] | 1.9
2 | Fc1cccc(F)c1C1=NCc2nnc(-c3ccncn3)n2-c2ccc(Br)c(Br)c21 [Example 43, 7,8-dibromo-6-(2,6-difluorophenyl)-1-pyrimidin-4-yl-4H-[1,2,4]triazolo[4,3-a][1,4]benzodiazepine] | 1.4
3 | Cc1nnc2n1-c1ccc(C3CC3)c(Cl)c1C(c1c(F)cccc1F)=NC2 [Example 6, 7-chloro-8-cyclopropyl-6-(2,6-difluorophenyl)-1-methyl-4H-[1,2,4]triazolo[4,3-a][1,4]benzodiazepine] | 12.7
